Results as given in PubChem BioAssay (NCI).
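Grown in 96-well plates, cells were treated for 48 hours with each compound at five concentrations. Insufficient inhibition: endpoint recorded as highest concentration tested. GI50 = concentration required for 50% inhibition of growth. The concentration for full growth arrest is given as TGI.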 Where a SMILES comes first, the peptide text is derived from it. The star is where a group is joined. Boc = CC(C)(C)OC(=O)*

Experiments:
Assay in all cases: inhibition of tumour cell growth, NCI panel, 48 h
LOX IMVI melanoma = tested on: LOX IMVI melanoma
NCI-H23 lung = tested on: NCI-H23 lung
KM20L2 colon = tested on: KM20L2 colon
EKVX NSCLC = tested on: EKVX NSCLC
SF-295 CNS = tested on: SF-295 CNS
HOP-62 NSCLC = tested on: HOP-62 NSCLC
SNB-78 CNS = tested on: SNB-78 CNS
DMS 114 small cell lung = tested on: DMS 114 small cell lung
HT29 colon = tested on: HT29 colon
XF 498 CNS = tested on: XF 498 CNS
DMS 273 small cell lung = tested on: DMS 273 small cell lung
UACC-257 melanoma = tested on: UACC-257 melanoma
HOP-18 NSCLC = tested on: HOP-18 NSCLC
DLD-1 colon = tested on: DLD-1 colon
MDA-MB-435 = tested on: MDA-MB-435
T-47D breast = tested on: T-47D breast
MCF7 breast = tested on: MCF7 breast

Compound	TGI (LOX IMVI melanoma) [µM]	TGI (NCI-H23 lung) [µM]	TGI (KM20L2 colon) [µM]	TGI (EKVX NSCLC) [µM]	TGI (SF-295 CNS) [µM]	TGI (HOP-62 NSCLC) [µM]	TGI (SNB-78 CNS) [µM]	TGI (DMS 114 small cell lung) [µM]	TGI (HT29 colon) [µM]	TGI (XF 498 CNS) [µM]	TGI (DMS 273 small cell lung) [µM]	TGI (UACC-257 melanoma) [µM]	TGI (HOP-18 NSCLC) [µM]	TGI (DLD-1 colon) [µM]	TGI (MDA-MB-435) [µM]	TGI (T-47D breast) [µM]	GI50 (KM20L2 colon) [µM]	GI50 (SF-295 CNS) [µM]	GI50 (DMS 114 small cell lung) [µM]	TGI (MCF7 breast) [µM]
O=C1CCN(CCC(F)(F)C(F)(F)C(F)(F)C(F)(F)F)C(=S)N1	> 100	> 100	> 100	> 100	> 100	> 100	> 100	> 100	> 100	> 100	> 100									
COc1cc(/C=C(\C)c2ccc3c(c2)OCO3)cc(OC)c1OC	> 100	> 100	> 100	51.8	> 100	> 100	> 100	87	> 100		96.3	> 100	> 100	> 100						
CCOC(=O)C(CC(C)C)NC(=O)C(N)Cc1ccc(N(CCCl)CCCl)cc1 (configuration not stated)	0.278	7.09	13.5	37.5	21.9	22		7.54	11.6	3.87	13.2	26.9	16.1	8.27	46.2	15.1				
COc1ccc(-c2cc(=O)c3cc4c(cc3[nH]2)OCO4)c(OC)c1	> 100	> 100	> 100	> 100	> 100	> 100	> 100	87.3	> 100	97.9	> 100		> 100	> 100			42.7	46.2	26.1	
NC(=S)N/N=C/c1cn(CCCl)c2ccccc12	> 100	> 100		> 100	> 100	> 100	> 100	> 100	> 100			> 100	> 100	> 100						
ClCc1nnc2n1-c1ccc(Cl)cc1SC2	2.82	8.2	15.9	> 51.9	15.5	17.4	18.9	9.58	10.2	20	13	9.8	13.2							12.2
CN1CCN(Cn2nc(-c3ccccc3)n(/N=C/c3ccc(-c4ccc(Cl)cc4Cl)o3)c2=S)CC1	46.7	40.7		> 100	29.9	30.5			36.3			47.5			46.1	45.1				38.6
N[C@@H]1c2c(Br)sc(Br)c2C(=O)[C@H]1Br	33.3	57.4		> 88	> 100	> 93.6			53.3			> 75.3			> 61	84				> 100
CN1C[C@@H]2CC(=O)CC[C@@H]2C[C@H]1C#N	> 100		> 100		> 100	> 100		> 100	> 100	> 100		> 100		> 100						
O=C(CC(O)(C(F)(F)Cl)C(F)(F)Cl)CC(O)(C(F)(F)Cl)C(F)(F)Cl	> 10	4.29		8.02	9.51	5.11			> 10			6.17			8.63	6.6				> 10
O=C(Nn1c(-c2ccccc2)nc2ccccc2c1=O)c1ccc([N+](=O)[O-])cc1	> 100	> 100		> 100	> 100	> 100			> 100			> 100			> 100	> 100				> 100
Cc1ccc2[nH]c3c(C)c4cc[n+](C)cc4c(C)c3c2c1	28.9	5.77	71.3	10.3	4.19	3.28	4.82	2.73	41.6		17.7	20.2	> 58.5	49.8	13.7	6.83				> 23.8
Cc1cc2c(=O)c3ccc(Cl)cc3[nH]c2c(C(=O)O)c1C	> 100	> 100	> 100	> 100	> 100	> 100	> 100	> 100	> 100	> 100		> 100	> 100	> 100						
O=c1cc(CN2CCCCC2)[nH]c2c1ccc1nc(CN3CCCCC3)cc(=O)n12	> 100	> 100		> 100	> 100	> 100			> 100			> 100			> 100	> 100				> 100
CC(C)(C)OC(=O)CCC1NC(=O)[C@@H]2Cc3c([nH]c4ccccc34)C(c3ccccc3)N2C1=O (some centres not stated)	36.3	79.6		> 100	37.8	51.2			56			50.1			52.1	> 100				> 100
CNC(=O)CNC(=O)C(NC(=O)CNC(=O)C1CCCN1C(=O)C(C)NC(=O)C(NC(=O)OC(C)(C)C)C(C)C)C(C)C (configuration not stated) (Boc-VAPGVG-NHMe; configuration not given here)	> 100	> 100		> 100	> 100	> 100			> 100			> 100			> 100	> 100				> 100
Nc1ccc(N=Nc2ccc(-c3ccc(N=Nc4c(S(=O)(=O)O)cc5cc(S(=O)(=O)O)c(N=Nc6ccc([N+](=O)[O-])cc6)c(N)c5c4O)cc3)cc2)c2cc(S(=O)(=O)O)ccc12	> 100	> 100	> 100	> 100	> 100	> 100	> 100		> 100	> 100	> 100	> 100		> 100						
Nc1c2ccccc2nc2nccnc12	> 100	> 100	> 100	> 100	> 100	> 100	> 100	> 100	> 100	> 100	> 100	> 100	> 100	> 100						

Compound	TGI (LOX IMVI melanoma) [µM]	TGI (NCI-H23 lung) [µM]	TGI (KM20L2 colon) [µM]	TGI (EKVX NSCLC) [µM]	TGI (SF-295 CNS) [µM]	TGI (HOP-62 NSCLC) [µM]	TGI (SNB-78 CNS) [µM]	TGI (DMS 114 small cell lung) [µM]	TGI (HT29 colon) [µM]	TGI (XF 498 CNS) [µM]	TGI (DMS 273 small cell lung) [µM]	TGI (UACC-257 melanoma) [µM]	TGI (HOP-18 NSCLC) [µM]	TGI (DLD-1 colon) [µM]	TGI (MDA-MB-435) [µM]	TGI (T-47D breast) [µM]	GI50 (KM20L2 colon) [µM]	GI50 (SF-295 CNS) [µM]	GI50 (DMS 114 small cell lung) [µM]	TGI (MCF7 breast) [µM]
CC12CCC3C(CCC4(O)C=CCCC34C=O)C1(O)CC(O)C2c1ccc(=O)oc1 (configuration not stated)	0.216	0.12	0.267	0.087	0.149	0.0954	0.97		1.71	0.158	0.0712	0.478	0.371	0.098						0.344
Cc1ccc(OC2CC(n3cnc4c(=O)[nH]c(Br)nc43)OC2Oc2ccc(C)cc2)cc1 (configuration not stated)	72	70.3		62.8	61.9	49.5			83.4			62.2			57.1	62.1				> 100
COc1cc(C)cc(C(=O)OCc2ccccc2)c1C1=C(Cl)C(=O)C(Cl)=CC1=O	> 10	> 10		> 10	> 10	> 10			> 10			> 10			> 10	> 10				> 10
CC[C@H](C)[C@H](NC(=O)[C@H](Cc1ccc(O)cc1)NCC(F)(F)F)C(=O)OC(C)(C)C	17.5	20.5		15.1	15.2	20.5			16.3			14.7			14.8	18.3				19.4
CNc1cccc(-c2cc(=O)c3cc4c(cc3[nH]2)OCO4)c1	> 72.2	7.28			> 22.9		> 100	7.84	2.71	> 100	16.9	> 100	> 100	0.969		> 100				> 100
O=C(O)[C@@]1(Cc2ccc(O)cc2)C[C@@H]2Cc3ccccc3N2N1	> 100	> 100		> 100	> 100	> 100			> 100			> 100			> 100	> 100				> 100
CCNc1nc2c(=O)n(C)c(=O)n(C)c2s1	> 100	> 100	> 100	> 100	> 100	> 100	> 100		> 100	> 100		> 100	> 100	> 100						
CCOC(=O)c1ccc(N(C)Cc2cnc3nc(N)nc(N)c3n2)cc1	> 100	> 100		> 100	> 100	54.7			> 100			> 100			> 100	79.7				49.8
CCCCCCCCOP(=O)(O)OP(=O)(O)OCC1OC(n2ccc(N)nc2=O)C(O)C1O (configuration not stated)	> 100	> 100		> 100	> 100	> 100			> 100			> 100			> 100	> 100				> 100
Cc1ccc(NCCO)cc1	> 100	> 100	> 100	> 100	> 100	> 100	> 100	> 100	> 100	> 100		> 100		> 100						
CNC(=O)Nn1c(SC)nc2ccccc21	> 100	> 100		> 100	> 100	> 100			> 100			> 100			> 100	> 100				> 100
COc1ccc(/C=C2\C(=O)Nc3ccccc32)cc1OC	> 100	> 100	> 100	> 100	> 100	> 100	> 100		> 100	> 100	> 100	> 100	> 100							
CCCCN(CCCC)C1(c2cc3ccccc3s2)CCCCC1	28.3	29.5		36.6	26.8	29.2			27.5			34			27.3	34.7				32.1
CCN(CC)CCC1CCCCN1CC(=O)N1c2ccccc2NC(=O)CC1C (configuration not stated)	> 100	> 100		> 100	> 100	> 100			> 100			> 100			> 100	> 100				> 100
NCCSC1(O)C(=O)c2ccccc2-c2ccccc21 (configuration not stated)	0.717	3.75		3.11	2.28	3.22			3.8			2.09			0.207	2.11				3.64
CO[C@@H]1C[C@H]2[C@@H]3CC[C@H]([C@@H](C)COC(C)=O)[C@@]3(C)CC[C@@H]2[C@@]2(C)CC[C@H]3C[C@]312	23.6	25.4		28	28.3	31.5			19.9			24.4			29.2	31.1				23.6
Nc1ccc(-c2nnc(-c3c(Cl)c(Cl)c(Cl)c(Cl)c3-c3nc4ccc(C(=O)c5ccccc5)cc4[nH]3)o2)cc1	> 100	> 100		87.7	58.5	79.9			40.8			> 100			75.8	78.5				76.2
N#CC(NNC(=O)Cc1ccccc1)c1ccc(O)cc1 (configuration not stated)	> 100	> 100			> 100	> 100		> 100	> 100		> 100	> 100	> 100	> 100						
